Data on 17 compounds can be found in patent US9682995B2, “Amino-substituted isothiazoles” (BAYER PHARMA AKTIENGESELLSCHAFT, priority 2013, dated 2017).

Structures are written as SMILES.

Experiment [1] deals with spindle assembly checkpoint. Kind of experiment: SAC-Formation - Paclitaxel-Induced Assay. It is filed as cell-based. To be noted: Homo sapiens; HeLa cells, paclitaxel 0.05 μM, 24 h, phosphorylated histone H3 on serine 10. From the text:
The spindle assembly checkpoint assures the proper segregation of chromosomes during mitosis. Upon entry into mitosis, chromosomes begin to condensate which is accompanied by the phosphorylation of histone H3 on serine 10. Dephosphorylation of histone H3 on serine 10 begins in anaphase and ends at early telophase. Accordingly, phosphorylation of histone H3 on serine 10 can be utilized as a marker of cells in mitosis. Nocodazole is a microtubule destabilizing substance. Paclitaxel is a microtubule stabilizing compound. Thus, nocodazole as well as paclitaxel interfere with microtubule dynamics and mobilize the spindle assembly checkpoint. […] The mitotic breakthrough can be detected by the decrease of cells with phosphorylation of histone H3 on serine 10. This decline is used as a marker to determine the capability of compounds of the present invention to induce a mitotic breakthrough. The typical morphological alteration of nuclei with a prematurely completed mitosis after SAC-inhibition can be monitored via image analysis routines supporting those findings.
The nocodazole and paclitaxel variations were used to focus on compounds that are capable of inhibiting a SAC induced by both microtubule destabilization as well as microtubule stabilization. When SAC inducing agents and compounds are given simultaneously, inhibitors that effectively block the SAC during formation or abrogation are identified. When cells are incubated with a SAC inducing agent and the SAC interfering compound is given after a defined time, inhibitors are identified that effectively block SAC abrogation.
Cultivated cells of the human cervical tumor cell line HeLa (ATCC CCL-2) were plated at a density of 1000 cells/well in a 1536-well microtiter plate in 2 μl PAA Ham's F12 Medium supplemented with 1% (v/v) glutamine, 1% (v/v) penicillin, 1% (v/v) streptomycin and 10% (v/v) fetal calf serum. After incubation overnight at 37° C., 10 μl/well paclitaxel at a final concentration of 0.05 μM were added to cells. Test compounds solubilized in dimethyl sulfoxide (DMSO) were added at various concentrations (0 μM, as well as in the range of 0.005 μM-20 μM; the final concentration of the solvent DMSO was 0.5% (v/v)). Cells were incubated for 24 h at 37° C. in the presence of test compounds in combination with paclitaxel. Thereafter, cells were fixed in 4% (v/v) paraformaldehyde in phosphate buffered saline (PBS) at 4° C. overnight then permeabilized in 0.1% (v/v) Triton X™ 100 in PBS at room temperature for 20 min and blocked in 0.5% (v/v) bovine serum albumin (BSA) in PBS at room temperature for 15 min. After washing with PBS, 5 μl/well antibody solution (anti-phospho-histone H3 clone 3H10, FITC; Millipore, Cat #16-222; 1:1000 dilution) was added to cells, which were incubated for 2 h at room temperature. Afterwards, cells were washed with PBS and 5 μl/well solution of HOECHST 33342 dye (5 μg/ml) was added to cells and cells were incubated 15 min at room temperature in the dark. Cells were washed twice with PBS then covered with PBS and stored at 4° C. until analysis. Images were acquired with a PERKIN ELMER OPERA™ High-Content Analysis reader. Images were analyzed with image analysis software MetaXpress™ from Molecular devices utilizing the Mitotic Index application module. In this assay both labels HOECHST 33342 and phosphorylated Histone H3 on serine 10 were measured. HOECHST 33342 labels the DNA and is used to count the cell number. The staining of phosphorylated Histone H3 on serine 10 determines the number of mitotic cells. […] Otherwise cells were arrested at G2/M phase of the cell cycle progression. The raw assay data were further analyzed by four-parametric hill equation using Genedata's Assay Analyzer and Condoseo software.

Experiment [2] deals with CDK2/CycE (Homo sapiens (Human), UniProt P24941). Kind of experiment: CDK2/CycE kinase assay (TR-FRET). It is filed as biochemical. To be noted: 10 μM ATP; read-out: CDK2 avg (IC50 [mol/l]). From the text: CDK2/CycE-inhibitory activity of compounds of the present invention was quantified employing the CDK2/CycE TR-FRET assay as described in the following paragraphs.
Recombinant fusion proteins of GST and human CDK2 and of GST and human CycE, expressed in insect cells (Sf9) and purified by Glutathion-Sepharose affinity chromatography, were purchased from ProQinase GmbH (Freiburg, Germany). As substrate for the kinase reaction biotinylated peptide biotin-Ttds-YISPLKSPYKISEG (C-terminus in amid form) was used which can be purchased e.g. form the company JERINI peptide technologies (Berlin, Germany).
For the assay 50 nl of a 100 fold concentrated solution of the test compound in DMSO was pipetted into a black low volume 384 well microtiter plate (Greiner Bio-One, Frickenhausen, Germany), 2 μl of a solution of CDK2/CycE in aqueous assay buffer [50 mM Tris/HCl pH 8.0, 10 mM MgCl2, 1.0 mM dithiothreitol, 0.1 mM sodium ortho-vanadate, 0.01% (v/v) Nonidet-P40 (Sigma)] were added and the mixture was incubated for 15 min at 22° C. to allow pre-binding of the test compounds to the enzyme before the start of the kinase reaction. Then the kinase reaction was started by the addition of 3 μl of a solution of adenosine-tri-phosphate (ATP, 16.7 μM=>final conc. in the 5 μl assay volume is 10 μM) and substrate (1.25 μM=>final conc. in the 5 μl assay volume is 0.75 μM) in assay buffer and the resulting mixture was incubated for a reaction time of 25 min at 22° C. The concentration of CDK2/CycE was adjusted depending of the activity of the enzyme lot and was chosen appropriate to have the assay in the linear range, typical concentrations were in the range of 130 ng/ml. The reaction was stopped by the addition of 5 μl of a solution of TR-FRET detection reagents (0.2 μM streptavidine-XL665 [Cisbio Bioassays, Codolet, France] and 1 nM anti-RB(pSer807/pSer811)-antibody from BD Pharmingen [#558389] and 1.2 nM LANCE EU-W1024 labeled anti-mouse IgG antibody [Perkin-Elmer, product no. AD0077, as an alternative a Terbium-cryptate-labeled anti-mouse IgG antibody from Cisbio Bioassays can be used]) in an aqueous EDTA-solution (100 mM EDTA, 0.2% (w/v) bovine serum albumin in 100 mM HEPES/NaOH pH 7.0).
The resulting mixture was incubated 1 h at 22° C. to allow the formation of complex between the phosphorylated biotinylated peptide and the detection reagents. Subsequently the amount of phosphorylated substrate was evaluated by measurement of the resonance energy transfer from the Eu-chelate to the streptavidine-XL. Therefore, the fluorescence emissions at 620 nm and 665 nm after excitation at 350 nm was measured in a TR-FRET reader, e.g. a Rubystar (BMG Labtechnologies, Offenburg, Germany) or a Viewlux (Perkin-Elmer). The ratio of the emissions at 665 nm and at […] was taken as the measure for the amount of phosphorylated substrate. The data were normalised (enzyme reaction without inhibitor=0% inhibition, all other assay components but no enzyme=100% inhibition).
In general terms: Time-resolved FRET reads energy transfer from a long-lived donor to a nearby acceptor.

With `COc1ccc(NC(=O)c2c(C)nsc2Nc2cnc3ccc(Cl)cc3n2)cn1` [Example 42, 5-[(7-Chloroquinoxalin-2-yl)amino]-N-(6-methoxypyridin-3-yl)-3-methyl-1,2-thiazole-4-carboxamide], the IC50 was 890 nM in experiment [1] and over 20000 nM in experiment [2].

In the case of `COc1ccc(NC(=O)c2c(C)nsc2Nc2cnc3c(F)c(F)ccc3n2)cn1` [Example 43, 5-[(5,6-Difluoroquinoxalin-2-yl)amino]-N-(6-methoxypyridin-3-yl)-3-methyl-1,2-thiazole-4-carboxamide], the IC50 in experiment [1] was 110 nM; in experiment [2] it was over 20000 nM.

As for `COc1ccc(NC(=O)c2c(C)nsc2Nc2cnc3ccc(F)cc3n2)cn1` [Example 44, 5-[(7-Fluoroquinoxalin-2-yl)amino]-N-(6-methoxypyridin-3-yl)-3-methyl-1,2-thiazole-4-carboxamide], the IC50 in experiment [1] was 490 nM; in experiment [2], over 20000 nM.

Consider `COc1ccc(NC(=O)c2c(C)nsc2Nc2cnc3cc(C(F)(F)F)ccc3n2)cn1` [Example 45, N-(6-Methoxypyridin-3-yl)-3-methyl-5-{[6-(trifluoromethyl)quinoxalin-2-yl]amino}-1,2-thiazole-4-carboxamide], for which the IC50 in experiment [1] was 140 nM; in experiment [2], over 20000 nM.

As for `Cc1nsc(Nc2cnc3cc(F)ccc3n2)c1C(=O)Nc1ccc(F)c(F)c1` [Example 46, N-(3,4-Difluorophenyl)-5-[(6-fluoroquinoxalin-2-yl)amino]-3-methyl-1,2-thiazole-4-carboxamide], the IC50 in experiment [1] was 34 nM; in experiment [2], over 20000 nM.

Consider `COc1ccc(NC(=O)c2c(C)nsc2Nc2nc3c(C(F)(F)F)cccc3s2)cc1F` [Example 47, N-(3-Fluoro-4-methoxyphenyl)-3-methyl-5-{[4-(trifluoromethyl)-1,3-benzothiazol-2-yl]amino}-1,2-thiazole-4-carboxamide], for which the figures for the IC50 in experiment [1] and in experiment [2] were 63 nM and over 20000 nM, respectively.

Regarding `COc1ccc(NC(=O)c2c(C)nsc2Nc2nc3c(C(F)(F)F)cccc3s2)cn1` [Example 48, N-(6-Methoxypyridin-3-yl)-3-methyl-5-{[4-(trifluoromethyl)-1,3-benzothiazol-2-yl]-amino}-1,2-thiazole-4-carboxamide], the results for the IC50 in experiment [1] and in experiment [2] were 140 nM and over 20000 nM, respectively.

Turning to `Cc1nsc(Nc2ncc(C(=O)N(C)C)s2)c1C(=O)Nc1ccc(F)c(F)c1` [Example 49, N-(3,4-Difluorophenyl)-5-{[5-(dimethylcarbamoyl)-1,3-thiazol-2-yl]amino}-3-methyl-1,2-thiazole-4-carboxamide], the IC50 in experiment [1] is 960 nM; in experiment [2] it was over 20000 nM.

Consider `Cc1nsc(Nc2cnc3ccccc3n2)c1C(=O)Nc1ccc(F)c(F)c1` [Example 50, N-(3,4-Difluorophenyl)-3-methyl-5-(quinoxalin-2-ylamino)-1,2-thiazole-4-carboxamide], for which the IC50 was 28 nM in experiment [1] and over 20000 nM in experiment [2].

In the case of `Cc1nsc(Nc2nc3c(C(F)(F)F)cccc3s2)c1C(=O)Nc1ccc(F)c(F)c1` [Example 51, N-(3,4-Difluorophenyl)-3-methyl-5-{[4-(trifluoromethyl)-1,3-benzothiazol-2-yl]-amino}-1,2-thiazole-4-carboxamide], the results for the IC50 in experiment [1] and in experiment [2] were 35 nM and over 20000 nM, respectively.

Take `Cc1nsc(Nc2ccc(C#N)cn2)c1C(=O)Nc1ccc(Cl)c(F)c1` [Example 52, N-(4-Chloro-3-fluorophenyl)-5-[(5-cyanopyridin-2-yl)amino]-3-methyl-1,2-thiazole-4-carboxamide]: the IC50 is 16 nM in experiment [1] and over 20000 nM in experiment [2].

Consider `Cc1nsc(Nc2nc3c(C(F)(F)F)cccc3s2)c1C(=O)Nc1ccc(Cl)c(F)c1` [Example 53, N-(4-Chloro-3-fluorophenyl)-3-methyl-5-{[4-(trifluoromethyl)-1,3-benzothiazol-2-yl]amino}-1,2-thiazole-4-carboxamide], for which the figures for the IC50 in experiment [1] and in experiment [2] were 590 nM and over 20000 nM, respectively.

Regarding `Cc1nsc(Nc2cc(C#N)ccn2)c1C(=O)Nc1ccc(Cl)c(F)c1` [Example 54, N-(4-Chloro-3-fluorophenyl)-5-[(4-cyanopyridin-2-yl)amino]-3-methyl-1,2-thiazole-4-carboxamide], the IC50 in experiment [1] was 30 nM; in experiment [2] it was over 20000 nM.

On to `CCOC(=O)c1cnn2ccc(Nc3snc(C)c3C(=O)Nc3ccc(F)c(F)c3)nc12` [Example 55, Ethyl 5-({4-[(3,4-difluorophenyl)carbamoyl]-3-methyl-1,2-thiazol-5-yl}amino)-pyrazolo[1,5-a]pyrimidine-3-carboxylate], for which the IC50 was 460 nM in experiment [1] and over 20000 nM in experiment [2].

Take `Cc1nsc(Nc2cnccn2)c1C(=O)Nc1ccc(Cl)c(F)c1` [Example 56, N-(4-Chloro-3-fluorophenyl)-3-methyl-5-(pyrazin-2-ylamino)-1,2-thiazole-4-carboxamide]: the IC50 was 250 nM in experiment [1] and over 20000 nM in experiment [2].

In the case of `Cc1nsc(Nc2ccn3nccc3n2)c1C(=O)Nc1ccc(F)c(F)c1` [Example 57, N-(3,4-Difluorophenyl)-3-methyl-5-(pyrazolo[1,5-a]pyrimidin-5-ylamino)-1,2-thiazole-4-carboxamide], the results for the IC50 in experiment [1] and in experiment [2] were 390 nM and over 20000 nM, respectively.

Take `CCOC(=O)c1cnc(Nc2snc(C)c2C(=O)Nc2ccc(F)c(F)c2)o1` [Example 96, Ethyl 2-({4-[(3,4-difluorophenyl)carbamoyl]-3-methyl-1,2-thiazol-5-yl}amino)-1,3-oxazole-5-carboxylate]: the IC50 is 1400 nM in experiment [1] and over 20000 nM in experiment [2].
